# Publication PMC4840416, “Constructing and Validating High-Performance MIEC-SVM Models in Virtual Screening for Kinases: A Better Way for Actives Discovery” (Scientific Reports, 2016)
# Biological target: T1, recombinant human ALK protein (Homo sapiens, UniProt Q9UM73)
# T1 construct: purchased Life Technologies Inc. PV3867
# Test: LanthaScreen TR-FRET in vitro inhibitory activity assay of ALK
# Assay type: biochemical
# Details: TR-FRET, 5 μM ATP, 1 hour at room temperature
# Method: All reagents and anhydrous solvents were obtained from commercial sources and used as received. The positive control inhibitors of ALK, crizotinib and ceritinib, were purchased from Bangshunda Technology and Selleck Chemicals, respectively. The compounds were dissolved in 100% dimethyl sulfoxide (DMSO) as a 10 mM stock solution. The final DMSO concentration in each reaction was less than 1%. Purified recombinant human ALK protein (Catalog number: PV3867) as well as reagents for TR-FRET assay, including Lantha Screen™ Tb-PY20 (Catalog number: PV3552), Fluorescein-Poly GT (Catalog number: PV3610), ATP (Catalog number: PV3227), Kinase Quench Buffer (Catalog number: P2832), Kinase Buffer (Catalog number: PV3189), and Antibody Dilution Buffer (Catalog number: PV3574), were all obtained from Life Technologies Inc.
# Lantha Screen™ kinase assay based on TR-FRET technology was used to measure the inhibitory activity of the screened compounds. All the assays were carried out in 384-well plate format. The 4 × test compounds were firstly prepared before the enzyme reaction starts. The 4 × recombinant human ALK protein and 2 × Substrate/ATP mixture were separately prepared in 50 mM HEPES (pH = 7.5), 0.01% BRIJ-35, 10 mM MgCl2, 4 mM MnCl2, 1 mM EGTA, and 2 mM DTT. The final 10 μL kinase reaction consists of 5 μL 1 × Substrate/ATP mixture (0.2 μM substrate and 5 μM ATP), 2.5 μL ALK (5 ng/ml ALK protein), and 2.5 μL 1 × test compounds with desired concentration. The assay plate was shook on a plate shaker for 30 seconds to mix the reactions thoroughly. After 1 hour kinase reaction incubation at room temperature (20 ~ 25 °C), 10 μL of pre-prepared 20 mM EDTA and 4 nM Tb-labeled antibody solution was then added to terminate the kinase reactions and to initiate antibody binding, and the assay plate was incubated for another 1 hour at room temperature. Then, the assay plate was placed into a fluorescence plate reader (BioTek Synergy™ 4) to measure both fluoresce in and terbium emission signals (excitation: 340 nm; emission: 520 and 495 nm, respectively) with 100 μs delay time and 200 μs integration time. To determine the IC50 values, the resulted inhibitory activity calculated from TR-FRET emission ratio (i.e. fluoresce in emission intensity/terbium emission intensity) was plotted against the concentration of inhibitor, and the data was fitted to a dose-response curve with a variable slop.
# T1 sequence (Q9UM73 1058-1620 limits assumed): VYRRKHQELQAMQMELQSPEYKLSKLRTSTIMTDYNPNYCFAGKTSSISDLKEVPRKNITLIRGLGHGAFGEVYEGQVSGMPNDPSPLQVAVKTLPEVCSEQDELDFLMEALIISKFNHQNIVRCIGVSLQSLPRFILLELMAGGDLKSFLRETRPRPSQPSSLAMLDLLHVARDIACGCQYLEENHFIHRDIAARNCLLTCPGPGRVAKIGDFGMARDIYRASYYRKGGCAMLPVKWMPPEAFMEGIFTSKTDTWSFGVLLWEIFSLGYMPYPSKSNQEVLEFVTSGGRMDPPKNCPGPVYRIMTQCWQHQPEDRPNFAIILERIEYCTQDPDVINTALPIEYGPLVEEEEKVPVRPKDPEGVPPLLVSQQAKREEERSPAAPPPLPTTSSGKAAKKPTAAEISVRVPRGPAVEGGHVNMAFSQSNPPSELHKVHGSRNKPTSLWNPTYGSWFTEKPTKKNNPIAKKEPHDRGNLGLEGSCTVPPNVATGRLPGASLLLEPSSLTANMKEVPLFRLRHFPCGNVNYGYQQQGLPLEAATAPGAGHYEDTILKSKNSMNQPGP
row,Compound,IC50 [µM]
1,Cc1c(C=C2C(=O)N(C)C(=S)N(C)C2=O)c2ccccc2n1Cc1ccccc1 [Compound M9],18.2
2,CN1C(=O)c2cccc3c(S(=O)(=O)Nc4nc[nH]n4)ccc1c23 [Compound M6],4.45
3,O=C(c1cc(C(=O)N2CCN(c3ccccc3)CC2)cc(C(=O)N2CCN(c3ccccc3)CC2)c1)N1CCN(c2ccccc2)CC1 [Compound A1],0.572

# Same assay, conditions: compound at 2ug/ml
row,Compound,Averaged Enzymatic Inhibition @ 2ug/ml (%)
1,Cc1ccc(NC(=O)c2sc3nc(N)c(C#N)c(-c4ccc(C(C)C)cc4)c3c2N)cc1Cl [AE-848/15116611],10.08
2,O=C1/C(=C/c2ccc(-c3cccc(Cl)c3)o2)CCC/C1=C\c1ccc(-c2cccc(Cl)c2)o1 [AA-504/07472022],40.455
3,Cc1cccc(C)c1OCC(O)CN1CCC(CN2C(=O)c3cccc4cccc(c34)C2=O)CC1 (centres unmarked) [AF-399/14388040],-20.41
4,Cc1ccc(OS(=O)(=O)c2cccc(C(=O)Nc3ccccc3)c2)c(-n2nc3ccccc3n2)c1 [AG-690/11836103],-16.78
5,O=C1C2=C(NC3=C(C(=O)c4ccccc43)C23C(=O)c2cccc4cccc3c24)c2ccccc21 [AE-848/15341192],13.145
6,O=C(COC(=O)c1c(-c2ccccc2)c(-c2ccccc2)nc2ccccc12)c1ccccc1 [AK-918/15391011],-13.24
7,Cc1ccc(-c2cc(C(=O)N3CCN(C/C=C/c4ccccc4)CC3)c3ccccc3n2)cc1C [AK-968/11842315],10.91
8,Cc1c(C=C2C(=O)N(C)C(=S)N(C)C2=O)c2ccccc2n1Cc1ccccc1 [Compound M9],37.24
9,Cc1ccc(NC(=O)c2ccc(-c3ccccc3)cc2)c(OC(=O)c2ccc(-c3ccccc3)cc2)c1 [AG-690/09396003],3.685
10,CCOc1cc(/C=N\NC(=O)CCc2ccccc2)ccc1OC(=O)/C=C/c1ccccc1 [AH-487/37011044],-17.16
11,OC(CON=C1c2ccccc2-c2ccccc21)CN1CCN(c2ccc(Cl)cc2)CC1 (centres unmarked) [AS-871/42941985],-10.47
12,CCCOc1ccc(-c2cc(C(=O)N3CCC(Cc4ccccc4)CC3)c3ccccc3n2)cc1 [AK-968/15360205],-17.96
13,Cc1cc(C)c2c(c1)c(-c1ccccc1)c(-c1ccccc1)n2CC(O)CN1CCC(C)CC1 (centres unmarked) [AF-399/15128132],-9.645
14,COc1ccccc1C(=O)Nc1ccc2oc(-c3cccc4c(Br)cccc34)nc2c1 [AK-968/12097078],-2.025
15,O=C(Nc1ccccc1)c1c(-c2ccccc2)c(C(=O)c2ccc([N+](=O)[O-])cc2)n2ccccc12 [AI-204/31728031],3.565
16,CCn1cc(/C=C2\C(=O)NC(=S)N(c3cccc4ccccc34)C2=O)c2ccccc21 [AN-465/14954307],46.45
17,O=C1c2cccc3c2C2=S(Sc4ccc(NC5CCCCC5)c1c42)N3C1CCCCC1 (centres unmarked) [AH-541/12737056],12.4
18,N#Cc1c(N)nc2sc(C(=O)Nc3ccccc3)c(N)c2c1-c1cccs1 [AN-512/12594125],10.48
19,CCOC(=O)c1c(/N=C(/Nc2ccccc2-c2ccccc2)c2ccccc2)sc2c1CCCC2 [AG-690/40750112],16.665
20,N#Cc1c(N)nc2sc(C(=O)Nc3ccc(Cl)cc3)c(N)c2c1-c1cccs1 [AN-848/43256373],-5
21,Cc1ccc(-c2cc(-c3ccccc3Cl)c3c(N)c(-c4nnc(-c5ccccc5)o4)sc3n2)cc1 [AG-690/40749514],-4.41
22,O=C(Cn1cc(/C=C2\SC(=NC3CCCC3)N(C3CCCC3)C2=O)c2ccccc21)N1CCOCC1 [AO-081/15386972],-1.4
23,C(=N\Nc1nnc(-c2ccccc2)c(-c2ccccc2)n1)/c1c2ccccc2cc2ccccc12 [AK-968/11200121],-0.805
24,Cc1ccccc1NC(=O)c1sc2nc(N)c(C#N)c(-c3ccc(C(C)C)cc3)c2c1N [AE-848/15116597],8.9
25,CN1CCc2nc3sc(C(=O)c4ccc(-c5ccccc5)cc4)c(N)c3c(-c3cccs3)c2C1 [AM-807/14959628],-12.705
26,O=C1c2ccc(-c3nc4ccccc4s3)cc2C(=O)N1c1cccc(-c2nc3ccccc3s2)c1 [AN-979/41713847],5.385

row,Compound,Averaged Enzymatic Inhibition @ 2ug/ml (%)
1,Cc1onc(-c2ccccc2)c1C(=O)Nc1cccc2c1C(=O)c1ccccc1C2=O [AK-968/13025057],30.35
2,O=C(Nc1cccc(S(=O)(=O)N2CCN(C(=O)c3ccccc3)CC2)c1)C1CCCCC1 [AO-080/43378230],-9.72
3,O=C1c2ccccc2-c2onc3c(Sc4ccccc4)cc(Sc4ccccc4)c1c23 [AG-690/40097114],1.725
4,C=CCN(C(=O)c1ccc2nc(-c3ccccc3)c(-c3ccccc3)nc2c1)c1ccccc1 [AG-205/36717014],19.28
5,Cc1ccc(-n2cnc3c(sc4nnc(-c5ccccc5)c(-c5ccccc5)c43)c2=O)cc1 [AN-789/13819006],1.595
6,c1ccc2c(c1)Oc1ccccc1C2=C1c2ccccc2Oc2ccccc21 [AG-690/36541063],11.335
7,Cc1ccccc1NC(=O)c1cc2ccccc2c(C=Nc2ccccc2Cl)c1O [AG-664/32341038],6.53
8,CC1=C(C(=O)Nc2ccccc2)C(c2ccccc2)n2c(s/c(=C/C=C\c3ccccc3)c2=O)=N1 (centres unmarked) [AG-690/37079179],15.845
9,CC(NS(=O)(=O)c1cccc(Cl)c1)C(=O)Nc1cccc(-c2nc3ccccc3s2)c1 (centres unmarked) [AQ-750/42209760],13.425
10,Cc1cccn2c(=O)c3cc(C(=O)NC(C)c4ccccc4)c(=N)n(CCc4ccccc4)c3nc12 (centres unmarked) [AS-871/41399397],-8.995
11,O=C1c2cccc3cccc(c23)C(=O)N1CC1CCN(S(=O)(=O)/C=C/c2ccccc2)CC1 [AF-399/14864072],-20.25
12,C(=C(\Cn1nc(-c2ccccc2)c(-c2ccccc2)c1-c1ccccc1)c1ccccc1)/c1ccccc1 [AK-830/13217169],2.08
13,Cc1ccnc(NC(=O)c2ccc(Cl)c(NC(=O)c3ccc(-c4ccccc4)cc3)c2)c1 [AN-652/43161615],17.89
14,N#CC1=C(N)Oc2n[nH]c(-c3ccccc3)c2C1c1cccc(OCc2cccc3ccccc23)c1 (centres unmarked) [AP-964/41446891],13.75
15,Cc1cc(C)c2c(c1)c(-c1ccccc1)c(-c1ccccc1)n2CC(O)CNc1ccc(C(C)C)cc1 (centres unmarked) [AF-399/15128126],32.1
16,O=C(c1cccc(S(=O)(=O)NC2CCCCCC2)c1)c1cccc(S(=O)(=O)NC2CCCCCC2)c1 [AP-866/40876225],9.84
17,Cc1ccc(C(=O)COC(=O)c2ccc3nc4c5ccccc5c5ccccc5c4nc3c2)cc1C [AK-918/13399094],8.005
18,CC(C)c1ccc(-c2c(C#N)c(N)nc3sc(C(=O)Nc4ccc(Cl)cc4)c(N)c23)cc1 [AE-848/15116593],-8.375
19,Cc1nc(Nc2nc(CSc3nnnn3-c3ccccc3)cc(=O)[nH]2)nc2ccccc12 [AJ-292/42284747],1.31
20,O=C(COc1ccccc1-c1cnn(-c2ccccc2)c1)N/N=C/c1cc2ccccc2nc1Cl [AN-829/42007480],2.755
21,c1ccc2cc3c(ccc4ccc5cc6c(ccc7ccccc76)cc5c43)cc2c1 [AB-131/42301451],28.575
22,Nc1cc(NC(=O)c2cn(-c3ccccc3)nc2-c2ccccc2)cc(Oc2ccccc2)c1 [AG-205/33688061],14.9
23,Cc1ccc(-c2cc(-c3c(-c4ccccc4)c4cc(Cl)ccc4[nH]c3=O)nc3ccccc23)cc1 [AG-690/12134081],10.575
24,Cc1cc(C)c2c(c1)c(-c1ccccc1)c(-c1ccccc1)n2CC(O)CNCc1ccccc1 (centres unmarked) [AF-399/15128108],-21.105
25,CCCCC1CCC(c2nc3c4c(c(Nc5cccc(C)c5)ccc4n2)C(=O)c2ccccc2-3)CC1 (centres unmarked) [AH-034/08463011],1.2

# Same assay, conditions: compound at 2ug/ml, read-out: Averaged Enzymatic Inhibition @ 2ug/ml (%)
row,Compound,inhibition at 2 µg/mL [%]
1,CN1C(=O)c2cccc3c(S(=O)(=O)Nc4nc[nH]n4)ccc1c23 [Compound M6],53.3
2,O=C(c1cc(C(=O)N2CCN(c3ccccc3)CC2)cc(C(=O)N2CCN(c3ccccc3)CC2)c1)N1CCN(c2ccccc2)CC1 [Compound A1],80.6
